Numbers after ± are expanded uncertainties.
Details: Liquid, Ebulliometric method (Recirculating still)

CC1(C)COC1 [3,3-dimethyloxetane]
vapor or sublimation pressure (352.8 K): 101.3 ± 3 kPa

CC(C)(CO)CCl [3-chloro-2,2-dimethyl-1-propanol]
vapor or sublimation pressure (439.15 K): 101.3 ± 3 kPa

CC1CCCCC1 [methylcyclohexane]
vapor or sublimation pressure (373.35 K): 101.3 ± 3 kPa

Reference: the NIST ThermoML archive (doi:10.1021/acs.jced.8b00966)
